Consider 32 molecules from patent US20140051575A1 (priority 2011, published 2014).

One series deals with Phytophthora infestans. Type of series: in vivo. The settings on record: tomato plants, preventive spray, 500 ppm of active ingredient, evaluated 7 days after inoculation; 0% = untreated control, 100% = no disease.
The test system of the next series is Pythium ultimum. The experiment in a line: Pythium test (cotton)/seed treatment. Type of series: in vivo. The settings on record: 50 g/dt seed of active ingredient, greenhouse 7 days, 100% = all seedlings have emerged. The protocol:
The test is performed under greenhouse conditions.
Cotton seeds, treated with the active compound or compound combinations, solved in N-methyl-2-pyrrolidon and diluted with water to the desired dosages, were sown in 6*6 cm pots containing 4 cm of a 1:1 mix of steamed field soil and sand.
Perlite was incubated with mycelium fragments of Pythium ultimum. 1 ml of infected perlite was scattered between the treated cotton seeds. Seeds were then covered by light expanded clay aggregate. Pots were incubated in the greenhouse 7 days at 20° C. and 80% relative humidity.
Assessment consisted of counting of emerged seedlings. 0% means an efficacy which corresponds to that of the control, while an efficacy of 100% means that all seedlings have emerged.

The subject of the next series is Plasmopara viticola. As to the kind of experiment: Plasmopara test (grapevines)/preventive. Format: in vivo. The note with it: preventive spray, 10 ppm of active ingredient, evaluated 6 days after inoculation, 0% = untreated control, 100% = no disease. The procedure:
To produce a suitable preparation of active compound, 1 part by weight of active compound is mixed with the stated amounts of solvent and emulsifier, and the concentrate is diluted with water to the desired concentration.
To test for preventive activity, young plants are sprayed with the preparation of active compound at the stated rate of application. After the spray coating has dried on, the plants are inoculated with an aqueous spore suspension of Plasmopara viticola and then remain for 1 day in an incubation cabinet at approximately 20° C. and a relative atmospheric humidity of 100%. The plant is subsequently placed for 4 days in a greenhouse at approximately 21° C. and a relative atmospheric humidity of approximately 90%. The plants are then misted and placed for 1 day in an incubation cabinet.
The test is evaluated 6 days after the inoculation. 0% means an efficacy which corresponds to that of the untreated control, while an efficacy of 100% means that no disease is observed.

A short description of series [1]: Measurement of logP values by HPLC on reversed phase columns (EEC directive 79/831 Annex V.A8). Format: physicochemical. The note with it: pH 2.7, 0.1% formic acid in water / acetonitrile gradient, calibration with alkan-2-ones. The protocol:
Measurement of logP values was performed according EEC directive 79/831 Annex V.A8 by HPLC (High Performance Liquid Chromatography) on reversed phase columns with the following methods:
Measurement of LC-MS was done at pH 2.7 with 0.1% formic acid in water and with acetonitrile (contains 0.1% formic acid) as eluent with a linear gradient from 10% acetonitrile to 95% acetonitrile.
Calibration was done with not branched alkan2-ones (with 3 to 16 carbon atoms) with known logP-values (measurement of logP values using retention times with linear interpolation between successive alkanones). lambda-maX-values were determined using UV-spectra from 200 nm to 400 nm and the peak values of the chromatographic signals.

Turning to `Cn1nnnc1C(=NOCc1csc(NC(=O)COCc2ccccc2)n1)c1ccccc1` [Example 50], the figures for the Eff. % in the series on Phytophthora infestans, in the series with Pythium ultimum and in the series on Plasmopara viticola were 100%, 93% and 100%, respectively. For the same molecule, in series [1], the lipophilicity (Log P) (in general, a log measure of how a compound divides between an organic and an aqueous phase) turned out to be 3.37.
Take `Cc1nnnn1C(=NOCc1cccc(NC(=O)C(C)OCC2CC2)n1)c1ccccc1` (stereo not drawn) [Example 24]: the Eff. % with Phytophthora infestans is reported as 100%; with Plasmopara viticola, 81%. Further, the “Log P” value in series [1] is recorded as 3.63.
Consider `CC(OCc1ccccc1)C(=O)Nc1nc(CON=C(c2ccccc2)c2nnnn2C)cs1` (stereo not drawn) [Example 49], for which the Eff. % with Plasmopara viticola is listed as 92%. Also, the “Log P” value in series [1] was determined as 3.71.
Take `Cc1ccccc1CSCC(=O)Nc1nc(CON=C(c2ccccc2)n2nnnc2C)cs1` [Example 88]: the figures for the Eff. % with Phytophthora infestans and in the series with Plasmopara viticola were 100% and 84%, respectively. Besides, in series [1], the “Log P” value is 4.06.
Regarding `Cc1nnnn1C(=NOCc1csc(NC(=O)C(C)OCC2CC2)n1)c1ccccc1` (stereo not drawn) [Example 34], the Eff. % in the series on Phytophthora infestans was 100%; with Pythium ultimum it was 92%; in the series on Plasmopara viticola, 94%. The lipophilicity (Log P) in series [1] came to 3.35.
Regarding `Cn1nnnc1C(=NOCc1csc(NC(=O)COCC2CCCCC2)n1)c1ccccc1` [Example 17], the Eff. % is recorded as 100% in the series on Phytophthora infestans and 94% in the series with Plasmopara viticola. In addition, in series [1], the lipophilicity (Log P) turned out to be 4.29.
Take `CC(OCC1CC1)C(=O)Nc1ccc(F)c(CON=C(c2ccccc2)c2nnnn2C)n1` (stereo not drawn) [Example 9]: the values for the Eff. % with Phytophthora infestans and with Plasmopara viticola were 100% and 89%, respectively. Also, the “Log P” value in series [1] was found to be 3.71.
Consider `CC(OCC1CCC1)C(=O)Nc1cccc(CON=C(c2ccccc2)c2nnnn2C)n1` (stereo not drawn) [Example 12], for which the Eff. % stood at 100% in the series with Phytophthora infestans and 84% in the series with Plasmopara viticola. The “Log P” value in series [1] was found to be 4.16.
For the molecule `CC(SCc1ccccc1)C(=O)Nc1nc(CON=C(c2ccccc2)c2nnnn2C)cs1` (stereo not drawn) [Example 71], the figures for the Eff. % in the series on Phytophthora infestans and with Plasmopara viticola were 100% and 82%, respectively. Also, the “Log P” value in series [1] was determined as 3.8.
For `Cn1nnnc1C(=NOCc1cccc(NC(=O)C2Cc3ccccc32)n1)c1ccccc1` (stereo not drawn) [Example 91], the Eff. % in the series with Plasmopara viticola is 77%. In series [1], the “Log P” value was 3.58.
On to `Cn1nnnc1C(=NOCc1cccc(NC(=O)CSCC2CC2)n1)c1ccccc1` [Example 67], for which the Eff. % in the series with Plasmopara viticola came to 78%. Moreover, the “Log P” value in series [1] was 3.51.
For the molecule `Cc1nnnn1C(=NOCc1csc(NC(=O)COCC2CCC2)n1)c1ccccc1` [Example 35], the Eff. % stood at 100% in the series on Phytophthora infestans and 91% with Plasmopara viticola. Also, the “Log P” value in series [1] is given as 3.59.
As to `Cn1nnnc1C(=NOCc1cccc(NC(=O)COCC2CCC2)n1)c1ccccc1` [Example 4], the values for the Eff. % with Phytophthora infestans and in the series on Plasmopara viticola were 97% and 80%, respectively. Also, the “Log P” value in series [1] turned out to be 3.83.
Consider `Cn1nnnc1C(=NOCc1csc(NC(=O)COCC2CCCC2)n1)c1ccccc1` [Example 16], for which the values for the Eff. % with Phytophthora infestans and in the series on Plasmopara viticola were 97% and 90%, respectively. Also, in series [1], the “Log P” value stood at 3.9.
As for `Cn1nnnc1C(=NOCc1csc(NC(=O)COCC2CCC2)n1)c1ccccc1` [Example 15], the Eff. % with Phytophthora infestans and in the series with Plasmopara viticola was 100% in each case. In series [1], the “Log P” value amounted to 3.52.
Molecule `Cn1nnnc1C(=NOCc1csc(NC(=O)COCC2CC2)n1)c1ccccc1` [Example 13] yielded an Eff. % in the series with Plasmopara viticola of 79%. Further, in series [1], the “Log P” value is 3.04.
Turning to `CC(OCC1CCCO1)C(=O)Nc1nc(CON=C(c2ccccc2)c2nnnn2C)cs1` (stereo not drawn) [Example 60], the Eff. % is given as 100% in the series on Phytophthora infestans and 85% with Plasmopara viticola. In series [1], the “Log P” value amounted to 3.15.
For `Cc1nnnn1C(=NOCc1csc(NC(=O)C(C)OCC2CCC2)n1)c1ccccc1` (stereo not drawn) [Example 42], the Eff. % in the series on Phytophthora infestans was determined as 100%; with Plasmopara viticola, 93%. For the same molecule, the “Log P” value in series [1] is on record as 3.9.
In the same order, the values of `CC(SC1CCCCC1)C(=O)Nc1nc(CON=C(c2ccccc2)c2nnnn2C)cs1` (stereo not drawn) [Example 74] are 100%, 82% and 4.12.
In the same order, the values of `Cn1nnnc1C(=NOCc1cccc(NC(=O)COCc2ccccc2)n1)c1ccccc1` [Example 48] are 95%, 96% and 3.63.
With `CC(OCC1CC1)C(=O)Nc1nc(CON=C(c2ccccc2)c2nnnn2C)cs1` (stereo not drawn) [Example 14], the Eff. % amounted to 100% in the series on Phytophthora infestans, 100% in the series on Pythium ultimum and 97% in the series with Plasmopara viticola. For the same molecule, the “Log P” value in series [1] is 3.29.
Consider `COC(C)CC(CC(=O)Nc1cccc(CON=C(c2ccccc2)c2nnnn2C)n1)OC` (stereo not drawn) [Example 96], for which the Eff. % in the series on Phytophthora infestans is 100%; with Plasmopara viticola, 78%. Also, in series [1], the “Log P” value worked out at 2.9.
Turning to `CC(OCC1CC1)C(=O)Nc1cccc(CON=C(c2ccccc2)c2nnnn2C)n1` (stereo not drawn) [Example 2], the values for the Eff. % with Pythium ultimum and with Plasmopara viticola were 100% and 95%, respectively. For the same molecule, the “Log P” value in series [1] is reported as 3.55.
For the molecule `CC(OCC1CCC1)C(=O)Nc1nc(CON=C(c2ccccc2)c2nnnn2C)cs1` (stereo not drawn) [Example 22], the figures for the Eff. % with Phytophthora infestans and in the series with Plasmopara viticola were 100% and 88%, respectively. Also, the log partition coefficient (Log P) in series [1] amounted to 3.83.
For the molecule `Cc1nnnn1C(=NOCc1csc(NC(=O)COCC2CC2)n1)c1ccccc1` [Example 33], in the series with Plasmopara viticola, the Eff. % was determined as 94%. The “Log P” value in series [1] came to 3.11.
As to `CC(C)CCOCC(=O)Nc1nc(CON=C(c2ccccc2)c2nnnn2C)cs1` [Example 45], the Eff. % in the series on Phytophthora infestans was 100%; with Plasmopara viticola it was 91%. For the same molecule, the “Log P” value in series [1] is 3.8.
Take `CC(OCC1CCCC1)C(=O)Nc1nc(CON=C(c2ccccc2)c2nnnn2C)cs1` (stereo not drawn) [Example 19]: the values for the Eff. % in the series on Phytophthora infestans and in the series with Plasmopara viticola were 100% and 91%, respectively. Further, in series [1], the “Log P” value is listed as 4.25.
Molecule `Cc1ccccc1CSCC(=O)Nc1cccc(CON=C(c2ccccc2)c2nnnn2C)n1` [Example 65] registered an Eff. % with Plasmopara viticola of 84%.
`Cc1nnnn1C(=NOCc1cccc(NC(=O)COCC2CCC2)n1)c1ccccc1` [Example 25]: the Eff. % stood at 97% in the series with Phytophthora infestans and 80% in the series with Plasmopara viticola. In series [1], the log partition coefficient (Log P) amounted to 3.92.
The like results for `Cn1nnnc1C(=NOCc1cccc(NC(=O)OCCCOC2CCCC2)n1)c1ccccc1` [Example 98] were, in that order, 100%, 81% and 4.14.
In the series on Phytophthora infestans, `Cn1nnnc1C(=NOCc1cccc(NC(=O)CCSCc2ccccc2)n1)c1ccccc1` [Example 101] returned an Eff. % of 90%. In addition, the “Log P” value in series [1] worked out at 3.83.
In the series on Phytophthora infestans, `Cn1nnnc1C(=NOCc1cccc(NC(=O)COCC2CCCC2)n1)c1ccccc1` [Example 5] yielded an Eff. % of 97%. Further, the log partition coefficient (Log P) in series [1] was found to be 4.24.
